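Protocol summary: plate cells (96-well), add compound at 5 concentrations, incubate 48 h, interpolate endpoints linearly. Abbreviation: GI50, concentration required for 50% inhibition of growth. The concentration for full growth arrest is given as TGI.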 Some results are limits rather than exact numbers.

For the experiment, the system named is MDA-MB-468 breast. The experiment in a line: NCI-60 cell line screen, 48 h.

As for `COc1cc2nc(-c3ccc(C(F)(F)F)cc3)cc(OCCCN3CCC(O)CC3)c2cc1OC`, the GI50 is 1630 nM and the TGI amounted to 11300 nM.
For the compound `Clc1ccc2c(N/N=C/c3c[nH]c4ccccc34)ccnc2c1`, the GI50 is 1010 nM and the TGI came out at 2450 nM.
As to `COc1cc2c3c(n(CCCNC4CCCCC4)c(=O)c2cc1OC)-c1cc2c(cc1C3=O)OCO2`, the GI50 was 5650 nM and the TGI was found to be 15700 nM.
With `Cc1cc(=O)n2[nH]c(-c3ccc(C(C)(C)C)cc3)cc2n1`, the GI50 was 3380 nM and the TGI amounted to 40600 nM.
As to `C=C(CNCCO)[C@@H]1CC[C@]2(CO)CC[C@]3(C)[C@H](CC[C@@H]4[C@@]5(C)CCC(N)C(C)(C)[C@@H]5CC[C@]43C)[C@@H]12` (some centres not stated), the GI50 was 1670 nM and the TGI stood at 3530 nM.
The matching figures for `CNC(=O)c1cc(Oc2ccc3nc(NC(=O)Nc4ccc(Cl)c(C(F)(F)F)c4)sc3c2)ccn1`: 1360 nM and 4100 nM.
In the same order, the values of `COc1cc(/C=C/c2cc(/C=C/c3ccc(O)c(OC)c3)n(C(=O)Nc3ccc(F)cc3)n2)ccc1O` are 1400 nM and 5760 nM.
The matching figures for `CC(C)c1ccc(C(C)C(=O)N(CC2=C(C(C)c3ccccn3)c3ccccc3C2)C(C)C)cc1` (configuration not stated): 2780 nM and 41700 nM.
Turning to `COc1ccc(-c2cc(-c3ccc(Nc4nc(Nc5ccccc5)nc(Nc5ccc(Cl)cc5)n4)cc3)nc(N)c2C#N)cc1`, the GI50 was 1150 nM and the TGI came to 3050 nM.
The matching figures for `O=C1/C(=C/c2ccc([N+](=O)[O-])cc2)COc2ccc(O)c(O)c21`: 1870 nM and 5550 nM.
`COc1cc2c(c(OC)c1O)C(=O)C(OC)C(c1ccc(O)c(O)c1)O2` (configuration not stated): the GI50 was 464 nM and the TGI amounted to 33300 nM.
`O=C(Nc1ccc(I)cc1)c1cc([N+](=O)[O-])ccc1O`: the GI50 is 3990 nM and the TGI amounted to 39400 nM.
As to `Cc1nc2c(nc1C)C(=O)c1ccccc1C2=O`, the GI50 is 1500 nM and the TGI is 6040 nM.
Regarding `COC(=O)Nc1nc2ccc(S(=O)c3ccccc3)cc2[nH]1` (configuration not stated), the GI50 is 1940 nM and the TGI worked out at 8290 nM.
In the same order, the values of `Oc1ccc(Cl)cc1-c1cc(-c2ccccc2Cl)[nH]n1` are 1960 nM and 7930 nM.
In the same order, the values of `Cn1ccnc1C(=O)/C=C/c1ccc(CC(=O)Nc2ccc(Br)cc2)cc1` are 2700 nM and 6620 nM.
For `CCCCCCCC(=O)SCC/C=C/[C@@H]1CC(=O)NCc2cccc(n2)C2=N[C@@](C)(CS2)C(=O)N[C@@H](C(C)C)C(=O)N1`, the GI50 was 535 nM and the TGI was greater than 33300 nM.
The matching figures for `Cc1cc2nc(C(Cl)Cl)nc(-c3ccc(Cl)cc3)n2n1`: 299 nM and 1120 nM.
In the case of `CC(=O)[O][Hg][c]1c(N)c(C)cc(C)c1F`, the GI50 is 1340 nM and the TGI was 2740 nM.
With `CN(C)CCCNC1=C(Cl)C(=O)c2ccccc2C1=O`, the GI50 is 1590 nM and the TGI came to 3330 nM.
With `CSc1ccccc1C#C/C=C\C#Cc1ccccc1N1CCCC1=O`, the GI50 is 1890 nM and the TGI amounted to 13800 nM.
In the same order, the values of `COc1ccc2c(c1)C(=O)/C(=C/c1ccc(OCC(=O)Nc3nccs3)cc1)O2` are 18.1 nM and 39.2 nM.
In the case of `O=C1c2ccccc2C(=O)c2sc(Nc3cccc(Cl)c3)nc21`, the GI50 was 1770 nM and the TGI was 3890 nM.
In the same order, the values of `NC1CCC(Nc2nc(NCc3ccc(-c4ccco4)nc3)c3ncn(C4CCCC4)c3n2)CC1` (configuration not stated) are 8.41 nM and 34.9 nM.
`CCOC(=O)Nc1nc2ccc(OCC)cc2s1`: the GI50 was 2080 nM and the TGI is greater than 100000 nM.
As to `Nc1cc2nc3ccccc3sc-2cc1=O`, the GI50 was 3740 nM and the TGI stood at 16100 nM.
For `C[C@@H](CS(C)(=O)=O)Nc1ncc2cc(Oc3ccc(F)cc3F)c(=O)n(C)c2n1`, the GI50 was greater than 25000 nM and the TGI was greater than 25000 nM.
With `O=c1n(CC2CO2)c(=O)n(CC2CO2)n1CC1CO1` (configuration not stated), the GI50 was 2290 nM and the TGI worked out at 16800 nM.
Take `O=C(CCl)N1c2ccccc2Oc2ccc3ccccc3c21`: the GI50 was 973 nM and the TGI was 2450 nM.
The matching figures for `O=C(CN1CCN(c2cc3c(cc2F)c(=O)c(C(=O)N/N=C/c2ccccc2O)cn3C2CC2)CC1)N/N=C\c1ccccc1O`: 599 nM and 2960 nM.
In the same order, the values of `NC(CSC(c1ccccc1)(c1ccccc1)c1ccc2c(c1)OCO2)C(=O)O` (configuration not stated) are 254 nM and 672 nM.
Take `Cc1cnc(NC(=O)C(Cc2ccccc2)NC(=O)c2ccccc2)s1` (configuration not stated): the GI50 was 15800 nM and the TGI came to 35700 nM.
In the case of `COc1cc(C(=O)/C=C/c2sc(Cl)nc2Cl)cc(OC)c1OC`, the GI50 is 1830 nM and the TGI came to 3700 nM.
Regarding `COc1c2ccoc2c(/C=C/C=O)c2oc(-c3ccccc3)cc(=O)c12`, the GI50 is 7020 nM and the TGI was 22200 nM.
For `CNC(=O)c1ccccc1Nc1nc(Nc2ccc(N3CCOCC3)cc2OC)ncc1Cl`, the GI50 is 1490 nM and the TGI turned out to be 4320 nM.
Take `O=C(NCCNc1nccc(-c2c(-c3cccc(O)c3)nc3sccn23)n1)c1ccccc1O`: the GI50 is 2640 nM and the TGI was 21000 nM.
The matching figures for `Fc1ccc(Nc2ncnc3ccc(-c4cnc5[nH]ccc5c4)cc23)cc1Cl`: 115 nM and 575 nM.
On to `O=C(Nc1ccc(F)cc1F)c1cc(I)ccc1O`, for which the GI50 is 2550 nM and the TGI was found to be 6880 nM.
As to `Clc1cccc(Cc2cn3cc(-c4ccccc4)nc3s2)c1Cl`, the GI50 was 6280 nM and the TGI is greater than 100000 nM.
As to `Clc1ccc2oc3c(NCCCN4CCOCC4)c4ccccc4nc3c2c1`, the GI50 is 1490 nM and the TGI turned out to be 3500 nM.
As for `CCOc1ccccc1-n1c(CN2CCN(C(=O)COc3ccc(CNCCCCCCN4C5CCCC4CC(OC(=O)Nc4cc(C)ccc4OC)C5)cc3)CC2)nc2ccccc2c1=O` (configuration not stated), the GI50 is 786 nM and the TGI was determined as 2420 nM.

These data come from PubChem BioAssay (NCI).
